Results taken from patent publication US20170050957A1, “4-AMINO-6-(HETEROCYCLIC)PICOLINATES AND 6-AMINO-2-(HETEROCYCLIC)PYRIMIDINE-4-CARBOXYLATES AND THEIR USE AS HERBICIDES” (Dow AgroSciences LLC, priority 2013, published 2017).
Read-outs that look alike come from different tables or passages of the source.

How the values were obtained:
Assay type in all cases: in vivo
wild oats (Avena fatua) = test: Pre-emergent Test I herbicidal activity; conditions: 4 Kg ai/ha
Experimental: (§1) Pre-emergent Test I Seeds of test species were planted into round plastic pots (5-inch diameter) containing sandy loam soil. After planting, all pots were sub-irrigated 16 h prior to compound application. Compounds were dissolved in a 97:3 v/v (volume/volume) mixture of acetone and dimethyl sulfoxide (DMSO) and diluted to the appropriate concentration in a final application solution containing water, acetone, isopropanol, DMSO and Agri-dex (crop oil concentrate) in a 59:23:15:1.0:1.5 v/v ratio and 0.02% w/v (weight/volume) of Triton X-155 to obtain the spray solution containing the highest application rate. The high application rate was serial diluted with the above application solution to provide delivery of the compound at rates 1/2×, 1/4× and 1/8× of the highest rate (equivalent to 4.0, 2.0, 1.0, and 0.5 kg/ha, respectively). Formulated compound (2.7 mL) was applied pipetted evenly over the soil surface followed by incorporation with water (15 mL). Following treatment, pots were returned to the greenhouse for the duration of the experiment. The greenhouse was programmed for an approximate 15 h photoperiod which was maintained at about 23-29° C. during the day and 22-28° C. during the night. Nutrients and water were added on a regular basis through surface irrigation and supplemental lighting was provided with overhead metal halide 1000-Watt lamps as necessary. Herbicidal effect ratings were obtained 14 days after treatment. All evaluations were made relative to appropriate controls on a scale of 0 to 100 where 0 represents no herbicidal effect and 100 represents plant death or lack of emergence from the soil.

[1] = test system: barnyardgrass (Echinochloa crs-galli); test: Pre-emergent Test I herbicidal activity; conditions: 4 Kg ai/ha
Experimental: as §1

[2] = test system: ivyleaf morningglory (Ipomoea hederecea); test: Pre-emergent Test I herbicidal activity; conditions: 4 Kg ai/ha
Experimental: as §1

[3] = test system: giant foxtail (Setaria faberi); test: Pre-emergent Test I herbicidal activity; conditions: 4 Kg ai/ha
Experimental: as §1

[4] = test system: sunflower (Helianthus annuus); test: Pre-emergent Test I herbicidal activity; conditions: 4 Kg ai/ha
Experimental: as §1

[5] = test system: Key Grass and Sedge Weeds as well as Grass Crops; test: Post-emergent Test II herbicidal activity (Table 16); conditions: post-emergence, 336 h, 14 d; for pest or weed control at 35 g/ha: 35 g ai/ha; for pest or weed control at 70 g/ha: 70 g ai/ha; for pest or weed control at 140 g/ha: 140 g ai/ha; for pest or weed control at 280 g/ha: 280 g ai/ha
In short: (§2)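 Visual injury rating (0 = none, 100% = complete kill) made 14 d after treatment, relative to untreated plants. Compounds in an acetone/DMSO/aqueous crop-oil/surfactant spray, at top rate and serial 1/2×-1/16× rates, were applied at 187 L/ha overhead to first-second true leaf plants raised 7-21 d in greenhouse.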

[6] = test system: Key Broadleaf Weed and Crop Species; test: Post-emergent Test II herbicidal activity (Table 15); conditions: post-emergence, 336 h, 14 d; for pest or weed control at 35 g/ha: 35 g ai/ha; for pest or weed control at 70 g/ha: 70 g ai/ha; for pest or weed control at 280 g/ha: 280 g ai/ha
In short: as §2

[7] = Cyperus esculentus, yellow nutsedge (Cyperus esculentus), read-out: Visual Growth Reduction (%) 14 Days After Application, CYPES
[8] = Echinochloa crus-galli, barnyardgrass (Echinochloa crus-galli), read-out: Visual Growth Reduction (%) 14 Days After Application, ECHCG
[9] = Oryza sativa, rice (Oryza sativa), read-out: Visual Growth Reduction (%) 14 Days After Application, ORYSA
[10] = Setaria faberi, giant foxtail (Setaria faberi), read-out: Visual Growth Reduction (%) 14 Days After Application, SETFA
[11] = Triticum aestivum, wheat, spring (Triticum aestivum), read-out: Visual Growth Reduction (%) 14 Days After Application, TRZAS
[12] = Zea mays, maize, corn (Zea mays), read-out: Visual Growth Reduction (%) 14 Days After Application, ZEAMX
[13] = Abutilon theophrasti, velvetleaf (Abutilon theophrasti), read-out: Visual Growth Reduction (%) 14 Days After Application, ABUTH
[14] = Amaranthus retroflexus, redroot pigweed (Amaranthus retroflexus), read-out: Visual Growth Reduction (%) 14 Days After Application, AMARE
[15] = Brassica napus, oilseed rape, canola (Brassica napus), read-out: Visual Growth Reduction (%) 14 Days After Application, BRSNN
[16] = Chenopodium album, lambsquarters (Chenopodium album), read-out: Visual Growth Reduction (%) 14 Days After Application, CHEAL
[17] = Euphorbia heterophylla, wild poinsettia (Euphorbia heterophylla), read-out: Visual Growth Reduction (%) 14 Days After Application, EPHHL
[18] = Helianthus annuus, sunflower (Helianthus annuus), read-out: Visual Growth Reduction (%) 14 Days After Application, HELAN

## COC(=O)c1nc(-c2ccc3sccc3c2)cc(N)c1Cl [Compound 3.05]
Wild oats (Avena fatua)
  Visual Growth Reduction (%) 14 Days After Application AVEFA: F (30-44)
[1]
  Visual Growth Reduction (%) 14 Days After Application, ECHCG: A (95-100)
[2]
  Visual Growth Reduction (%) 14 Days After Application IPOHE: A (95-100)
[3]
  Visual Growth Reduction (%) 14 Days After Application, SETFA: A (95-100)
[4]
  Visual Growth Reduction (%) 14 Days After Application HELAN: F (30-44)
[5]; [7]
  pest or weed control at 35 g/ha: 0 to 29%
  pest or weed control at 70 g/ha: 0 to 29%
  pest or weed control at 140 g/ha: 0 to 29%
  pest or weed control at 280 g/ha: 0 to 29%
[5]; [8]
  pest or weed control at 35 g/ha: 45 to 59%
  pest or weed control at 70 g/ha: 75 to 84%
  pest or weed control at 140 g/ha: 85 to 94%
  pest or weed control at 280 g/ha: 85 to 94%
[5]; [9]
  pest or weed control at 35 g/ha: 0 to 29%
  pest or weed control at 70 g/ha: 0 to 29%
  pest or weed control at 140 g/ha: 0 to 29%
  pest or weed control at 280 g/ha: 0 to 29%
[5]; [10]
  pest or weed control at 35 g/ha: 0 to 29%
  pest or weed control at 70 g/ha: 0 to 29%
  pest or weed control at 140 g/ha: 30 to 44%
  pest or weed control at 280 g/ha: 60 to 74%
[5]; [11]
  pest or weed control at 35 g/ha: 0 to 29%
  pest or weed control at 70 g/ha: 0 to 29%
  pest or weed control at 140 g/ha: 0 to 29%
  pest or weed control at 280 g/ha: 0 to 29%
[5]; [12]
  pest or weed control at 35 g/ha: 0 to 29%
  pest or weed control at 70 g/ha: 0 to 29%
  pest or weed control at 140 g/ha: 45 to 59%
  pest or weed control at 280 g/ha: 60 to 74%
[6]; [13]
  pest or weed control at 35 g/ha: 85 to 94%
  pest or weed control at 70 g/ha: 85 to 94%
  pest or weed control at 280 g/ha: 95 to 100%
[6]; [14]
  pest or weed control at 35 g/ha: 30 to 44%
  pest or weed control at 70 g/ha: 45 to 59%
  pest or weed control at 280 g/ha: 85 to 94%
[6]; [15]
  pest or weed control at 35 g/ha: 0 to 29%
  pest or weed control at 70 g/ha: 0 to 29%
  pest or weed control at 280 g/ha: 0 to 29%
[6]; [16]
  pest or weed control at 35 g/ha: 75 to 84%
  pest or weed control at 70 g/ha: 85 to 94%
  pest or weed control at 280 g/ha: 85 to 94%
[6]; Chenopodium album, lambsquarters (Chenopodium album), 140 g ai/ha, read-out: Visual Growth Reduction (%) 14 Days After Application, CHEAL
  pest or weed control at 140 g/ha: 85 to 94%
[6]; [17]
  pest or weed control at 35 g/ha: 60 to 74%
  pest or weed control at 70 g/ha: 60 to 74%
  pest or weed control at 280 g/ha: 85 to 94%
[6]; [18]
  pest or weed control at 35 g/ha: 0 to 29%
  pest or weed control at 70 g/ha: 0 to 29%
  pest or weed control at 280 g/ha: 45 to 59%
